Molecular target: T1, BmrA (Bacillus subtilis, UniProt O06967)
T1 construct: His tag; made in house; host or cells: E. coli C41(DE3)
Assay: Size exclusion chromatography of BmrA after detergent exchange
Procedure: The membrane fraction was extracted and purified in DDM by Ni-NTA metal affinity and Superdex 200 size exclusion, before being reloaded on Ni-NTA in order to exchange the DDM either with itself or with the compound 3.7c. Each pool was subsequently loaded onto a 3 ml Superdex S200 5/150 size exclusion column and eluted in the presence of 2 CMC of the same detergent, as indicated. The proteins are detected by absorbance at 280 nm.
The capacity of the compounds of the invention to maintain the membrane proteins in a native state was exemplified with the compound 3.7c of the invention, monitored by size exclusion chromatography and compared to the reference detergent DDM.
Procedure: BmrA was extracted in DDM and purified by Ni-NTA affinity chromatography as described in example 13, then loaded onto a Superdex 200 10/300 size exclusion column and eluted with 50 mM Hepes-HCl pH 8.0, 100 mM NaCl, 0.4 mM DDM (2×CMC). The fractions containing BmrA were pooled and separated into several aliquots (˜100 μg) kept at 4° C. One aliquot was subsequently reloaded onto an affinity column containing 1 ml of resin. The DDM was then exchanged against 10 volumes of Hepes-NaCl buffer containing either 2 CMC of DDM (control experiment) or 2 CMC of compound 3.7c (2 mM). BmrA was subsequently eluted in the respective buffers with 100 mM of imidazole added. The fractions containing the proteins were combined and concentrated on 50 kDa amicon (regenerated cellulose) to 50 μl, and were then deposited on a 3 ml Superdex 200 5/150 size exclusion column, equilibrated in 50 mM Hepes-HCl pH 8.0, 100 mM NaCl, and 2 CMC of DDM (0.4 mM) or 3.7c (2 mM). The elution was subsequently carried out at 0.3 ml/min in the respective buffers and the BmrA detected at 280 nm.

T1 sequence (O06967 whole entry): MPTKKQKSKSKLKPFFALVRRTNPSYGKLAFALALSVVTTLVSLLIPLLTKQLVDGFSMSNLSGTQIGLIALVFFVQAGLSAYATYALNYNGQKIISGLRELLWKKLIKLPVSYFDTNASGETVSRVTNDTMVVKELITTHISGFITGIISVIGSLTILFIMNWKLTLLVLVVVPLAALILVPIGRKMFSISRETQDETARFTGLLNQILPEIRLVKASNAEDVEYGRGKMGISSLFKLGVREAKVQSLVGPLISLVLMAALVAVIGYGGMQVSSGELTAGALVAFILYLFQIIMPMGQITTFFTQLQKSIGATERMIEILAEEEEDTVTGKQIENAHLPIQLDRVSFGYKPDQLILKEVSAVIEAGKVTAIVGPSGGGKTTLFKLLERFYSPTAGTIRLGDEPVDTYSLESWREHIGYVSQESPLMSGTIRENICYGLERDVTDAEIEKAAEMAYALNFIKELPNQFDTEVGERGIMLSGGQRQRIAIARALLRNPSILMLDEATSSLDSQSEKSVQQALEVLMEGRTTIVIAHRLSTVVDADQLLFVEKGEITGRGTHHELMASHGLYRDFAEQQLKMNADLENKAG

For CCCCCCCCCCCCCC(=O)N[C@@H](COCc1cn(CCO[C@@H]2OC(CO)[C@@H](O)C(O)C2O)nn1)C(=O)N[C@H](CCC(=O)O)C(=O)O (some centres unmarked) [Compound 3.7c], the “elution volume of BmrA” value (Superdex 200 5/150, 2 CMC of detergent, 0.3 ml/min) was roughly 1.6 mL and the “oligomerization state of BmrA” value (after exchange of DDM, 2 CMC (2 mM)) was “conserves the native oligomerization state”.
